What was measured:
[1] = tested on: hippocampal cultures (HIV-1 Tat toxicity); assay: HIV-1 Tat toxicity assay, MTT viability, mixed hippocampal cultures; assay type: cell-based, rat; conditions: Tat 500 nM; range of concentrations up to 10 μM
Description: We sought to evaluate the protective efficacy of a number of modified terpenoid compounds against the against many different neurotoxins, ranging from the chemotoxic 6-OHDA, NMDA, 3-nitropropionic acid (3-NP), and viral proteins such as Tat and gp120. Thus, we established an in vitro neuroprotection assay using rat mixed hippocampal cultures, in which we evaluated the protective efficacy of neuroprotective compounds disclosed herein. The oxidative stressor 3-NP was used to elicit toxicity in the rat hippocampal cultures to mimic the oxidative damage, reactive oxygen species production and ensuing neurodegeneration resulting from HIV infection. Another measure of neurotoxicity which results from HIV infection was evaluated by exposure of the hippocampal cultures to HIV-1 Tat (Li et al (2005), Neurotox Res, 8(1-2): 119-134).
Rat mixed hippocamal neuronal cultures were generated from freshly dissected rat hippocampi (embryonic day 18) in neurobasal media containing 5% fetal bovine serum and 2% B27 supplement. The cells were plated into 96 well plates at a density of 4×10^5 cells/mL and routinely used on days 11-14 following culturing. Cell viability was assessed with MTT [3-(4,5-dimethylthiazol-2-yl)-2,5-diphenyltetrazolium bromide] assay. The MTT assay is based on the ability of a mitochondrial dehydrogenase enzyme from viable cells to cleave the tetrazolium rings of the pale yellow MTT and form dark blue formazan crystals. See Mosmann (1983), J Immunol Methods, 65(1-2):55-63. These crystals are largely impermeable to cell membranes, and thus accumulate within healthy cells. The resultant formazan precipitates are solubilized with DMSO and read on a multiwell scanning spectrophotometer (ELISA reader). The number of surviving cells is directly proportional to the level of the formazan product created.
Cultures were preincubated with GPI 1046 or Resveratrol for one hour prior to an 18 hour exposure to 3 mM 3-NP. […] The same neuroprotective compounds were evaluated for efficacy against HIV-1 Tat protein toxicity using the same 1 hour preincubation protocol.

[2] = tested on: mixed hippocampal cell cultures (NMDA excitotoxicity); assay: NMDA excitotoxicity, MTT viability, mixed hippocampal cultures; assay type: cell-based, rat; conditions: NMDA 100 μM
Description: (§1) FIG. 8 is a set of bar graphs showing the results of an MTT viability assay of mixed hippocampal cell cultures in which the effect of (A) NMDA (100 μM) or (B) 6-OHDA (100 μM) is tested alone or in the presence of a range of concentrations of Limonin (0.1-10 μM).
(§2) We also tested the ability of Limonin to protect against N-methyl-D-Aspartic Acid (NMDA) excitotoxicity, and 6-Hydroxydopamine (6-0HDA), a dopaminergic neurotoxin.

[3] = tested on: mixed hippocampal cell cultures (6-OHDA neurotoxicity); assay: 6-OHDA neurotoxicity, MTT viability, mixed hippocampal cultures; assay type: cell-based, rat; conditions: 6-OHDA 100 μM
Description: as §1, §2

[4] = tested on: human fetal neuronal cultures; assay: 3-NP toxicity, MTT viability, human fetal neuron cultures; assay type: cell-based; conditions: 3-NP 3 mM; Limonin 0.1-10 μM
Description: (§3) FIG. 9 is a set of bar graphs showing the results of an MTT viability assay of human fetal neuron cultures in which the effect of (A) 3-NP (3 mM) or (B) 6-OHDA (100 μM) is tested alone or in the presence of a range of concentrations of Limonin (0.1-10 μM).
(§4) Finally, we sought to determine if the compounds tested in rat neuronal cultures would also be effective on cultured human fetal neurons.

[5] = tested on: human fetal neuronal cultures; assay: 6-OHDA toxicity, MTT viability, human fetal neuron cultures; assay type: cell-based; conditions: 6-OHDA 100 μM; Limonin 0.1-10 μM
Description: as §3, §4

CC1(C)O[C@H]2CC(=O)OC[C@]23[C@H]2CC[C@@]4(C)[C@H](c5ccoc5)OC(=O)[C@H]5O[C@]54[C@]2(C)C(=O)C[C@@H]13 [Limonin]
dose dependence of protection from HIV-1 Tat toxicity (FIG. 7) [1]: dose dependently protected | protection against NMDA at highest dose ([2]; Limonin 10 μM): complete protection | dose dependence of block of NMDA neurotoxicity (FIG. 8A) ([2]; Limonin 0.1-10 μM): dose-dependently blocked the neurotoxicity | protection against 6-OHDA at highest dose ([3]; Limonin 10 μM): complete protection | dose dependence of block of 6-OHDA neurotoxicity (FIG. 8B) ([3]; Limonin 0.1-10 μM): dose-dependently blocked the neurotoxicity | protection of human fetal neuronal cultures against 3-NP (FIG. 9A) [4]: dose-dependently protected | protection of human fetal neuronal cultures against 6-OHDA (FIG. 9B) [5]: dose-dependently protected
